# Experimental data reported in PMC6232849 (European journal of medicinal chemistry, 2018).
# Where two headings read alike, the source gives them in different places.
# Legend:
# [1] = tested on: NF54 strain of P. falciparum; assay: parasite growth inhibition, chloroquine-sensitive NF54 strain cultured in vitro; assay type: cell-based, Plasmodium falciparum
# [2] = tested on: Dd2 strain of P. falciparum; assay: parasite growth inhibition, chloroquine-resistant Dd2 strain; assay type: cell-based, Plasmodium falciparum
# [3] = tested on: β-hematin formation; assay type: biochemical; settings: for IC50: read-out: β-hematin inhibition IC50, NP-40 detergent mediated assay
# [4] = tested on: hemozoin formation in NF54 strain of P. falciparum; assay: cellular heme fractionation assay; assay type: cell-based, Plasmodium falciparum; settings: NF54, 32 h incubation, drug added to early ring stage parasites
# [5] = tested on: Chinese hamster ovarian, CHO, cells; assay: cytotoxicity against mammalian cells; assay type: cell-based
# [6] = read-out: NF54 malaria parasite growth inhibition IC50, chloroquine-sensitive NF54 strain, LDH method of Makler et al
molecule,measurement,setting,value
"CCN(CC)CCCC(C)Nc1ccnc2cc(Cl)ccc12 (stereo not drawn) [Chloroquine, reference compound]",IC50,"[1]; Plasmodium falciparum, NF54, read-out: IC50 NF54",16 ± 6 nM
same,IC50,"[1]; Plasmodium falciparum, NF54, read-out: NF54 malaria parasite growth inhibition IC50",16 ± 6 nM
same,IC50,"[2]; Plasmodium falciparum, DD2, read-out: IC50 Dd2",150 ± 30 nM
O=C(Nc1ccc(-c2nc3ccccc3[nH]2)cc1)c1ccccc1 [Compound 2],parasite growth inhibition activity (in words),[1],virtually inactive
same,β-hematin inhibition activity (in words),[3],virtually inactive
"O=C(Nc1ccc(-c2nc3ccccc3[nH]2)cc1)c1cncc(Br)c1 [Compound 5, N-(4-(1H-Benzo[d]imidazole-2-yl)phenyl)-5-bromonicotinamide]",parasite growth inhibition activity (in words),[1],sub-micromolar
same,change in freely exchangeable heme in the parasite cell,[4],corresponding increase
same,change in hemozoin in the parasite cell,[4],large decrease
same,change in undigested hemoglobin in the parasite cell,[4],much smaller (non-significant) increase
"O=C(Nc1ccc(-c2nc3ccccc3[nH]2)cc1)c1cc(Cl)nc(Cl)c1 [Compound 12, N-(4-(1H-Benzo[d]imidazole-2-yl)phenyl)-2,6-dichloroisonicotinamide]",parasite growth inhibition activity (in words),[1],sub-micromolar
"O=C(Nc1ccc(-c2nc3ccccc3n2C(=O)c2ccccc2)cc1)c1cccc(Br)c1 [Compound 26, N-(4-(1H-Benzoyl-benzo[d]imidazole-2-yl)phenyl)-3-bromobenzamide]",IC50,[1]; [6],2600 ± 600 nM
same,IC50,[3],15.6 ± 0.5 µM
N-(4-(1H-Benzo[d]imidazole-2-yl)phenyl)-3-(trifluoromethyl)nicotinamide [Compound 9],parasite growth inhibition activity (in words),[1],sub-micromolar
same,IC50,"[1]; read-out: IC50 NF54, chloroquine-sensitive NF54 strain (Table 2)",800 ± 500 nM
same,IC50,[1]; [6],800 ± 500 nM
same,SI (Dd2) (Selectivity index = IC50 (CHO)/IC50 (Dd2)),[5]; CHO versus Dd2,32
same,SI (NF54) (Selectivity index = IC50 (CHO)/IC50 (NF54)),[5]; CHO versus NF54,44
same,IC50,"[5]; read-out: IC50 CHO, cytotoxicity in CHO cells",35 ± 4 µM
same,IC50,[3],16.6 ± 0.3 µM
same,RI (Resistance index = IC50 (Dd2)/IC50 (NF54)),[2]; Dd2 versus NF54,1.4
same,IC50,"[2]; read-out: IC50 Dd2, chloroquine-resistant Dd2 strain",1100 ± 370 nM
